# Patent publication US12162918B2, “Periostin compounds for the treatment of haematological complications” (Chemotherapeutisches Forschungsinstitut Georg-Speyer-Haus, priority 2018, dated 2024)
# Assays:
# wildtype mice = assay: Measurement of the INR of warfarin-treated mice; format: in vivo; conditions: only at 0.5 mg/kg, vs sham-operated control mice, P=0.009
# Protocol: (§1) 0.5 mg/kg/d or 0.05 mg/kg/d of warfarin, resuspended in phosphate-buffered saline was administered to mice via subcutaneously implanted osmotic minipumps (ALZET minipumps, Cupertino, CA). The osmotic minipumps were changed after 14 days (if the experiment went beyond 14 days of treatment). Sham operated (skin incision and suture) mice served as controls. Warfarin treatment continued for 10-14 days. In the xenotransplantation experiments the mice were treated with warfarin via the drinking water (or normal drinking water) at a dose of 0.72 mg/100 ml for a total of 3 days a week (Pfeilschifter et al., 2011).
# A Coaguchek XS (Roche Diagnostics, Mannheim, Germany) and Coaguchek XS PT test strips were used to determine the INR of vehicle- and warfarin-treated mice.
# HSPC = assay: Methylcellulose colony assay of BM cells from treated mice; format: cell-based; conditions: from warfarin-treated vs control mice, P=0.02
# Text: For the methylcellulose colony assays, we plated 10,000 total BM cells from vehicle- or warfarin-treated mice in methylcellulose (M3434, Stem Cell Technologies, Vancouver, Canada). We scored colonies after 10 days.
# murine stroma cells = assay: Differentiation, gene expression and apoptosis of stroma and calvaria cells in presence of warfarin; format: cell-based
# Protocol: Concentrations of drugs for in vitro use were 2 μM for warfarin, 2 μg/ml for periostin, 5 μM for the AKT inhibitor MK-2206 (Selleck Chemicals, Houston, TX) and cilengitide (Selleck Chemicals, Houston, TX, Cat. No. #S7077) was used at 0.05 μM. Phosphate buffered saline served as the vehicle control.
# Bones from mice were crushed and plated and hematopoietic cells were removed the following day. As described (Mukherjee et al., 2008), after reaching confluence the stroma cells were cultured in α-MEM medium containing 10 mM β-glycerolphosphate, 10 nM dexamethasone and 50 μg/ml ascorbic acid for differentiation into osteoblastic cells (Mukherjee et al., 2008) or 500 nM insulin and 100 nM dexamethasone for differentiation into adipocytes. Differentiation was tested after 14-20 days by staining for von Kossa in the case of osteoblastic cells and Oil Red O in the case of adipocytes following standard staining protocols. Osteoclasts were purified from bone marrow macrophages, following standard protocols. Briefly, bone marrow cells were isolated from the femora and tibiae of 6-8 week old C57/B16 animals and cultured overnight at 37 C in α-MEM medium containing 10% fetal bovine serum and 1% antibiotic/antimycotic. The following day non-adherent cells were collected and separated by centrifugation on 50% Ficoll-Paque. Bone marrow-derived macrophages were seeded at 20,000 cells/well and cultured for 3 days in the presence of macrophage colony-stimulating factor (M-CSF) (50 ng/ml). On day 4 cells were also treated with receptor activator of nuclear factor kappa-B ligand (RANKL) (50 ng/ml) for an additional 4-5 days prior to tartrate-resistant acid phosphatase (TRAP) staining. Cells were treated with vehicle or warfarin (2 μM) for the entire culture period. […]
# Quantitative PCR was performed using standard protocols.
# [1] = tested on: Lin− hematopoietic cells on stroma cells; assay: Cobblestone-formation and coculture assay of Lin− cells on stroma cells; format: cell-based, mice
# Protocol: In the co-culture and cobblestone assays 20,000 Lin− cells were plated on stroma cells, which had been grown and expanded from vehicle- or warfarin-treated mice in medium (α-MEM medium supplemented with 20% fetal bovine serum, 1% penicillin/streptomycin, 1% L-Glutamine) containing vehicle or warfarin (2 μM). Conditioned medium was harvested from stroma from 5 mice grown in the above medium containing vehicle or warfarin for 7 days. Consequently, 100,000 Lin− cells were grown for 2-3 days in the conditioned medium and analyzed for cell counts by flow cytometry. Where indicated, the conditioned medium was concentrated using Microsep Advance Centrifugal Devices 30K Omega (Pall Life Sciences, Portsmouth, UK).
# For all coculture assays hematopoietic and stroma cells were derived from the same mouse strain (C57/B16). Stroma cells were used after a maximum of two passages and when they were 70-80% confluent. Stroma cells were derived by crushing bones from mice, plating them in α-MEM medium containing 20% fetal calf serum, penicillin/strptomycin and by removing non-adherent hematopoietic cells the following day, as described (Mukherjee et al., 2008).
# Lin− bone marrow cells = assay: Culture of Lin− bone marrow cells in conditioned medium from stroma cells; format: cell-based, mice; conditions: conditioned medium from warfarin-treated stroma cells
# Protocol: Conditioned medium was harvested from stroma from 5 mice grown in the above medium containing vehicle or warfarin for 7 days. Consequently, 100,000 Lin− cells were grown for 2-3 days in the conditioned medium and analyzed for cell counts by flow cytometry. Where indicated, the conditioned medium was concentrated using Microsep Advance Centrifugal Devices 30K Omega (Pall Life Sciences, Portsmouth, UK).
# LKS and LKS SLAM cells = assay: G-CSF-mediated mobilization; format: in vivo; conditions: warfarin-treated mice
# Protocol: In the mobilization experiments vehicle- or warfarin-treated C57/B16 mice were treated with 200 μg/kg G-CSF daily for 4 days, sacrificed on day 5 and peripheral blood analyzed for LKS and LKS SLAM cells by flow cytometry.
# human CD34+ cells = assay: Xenotransplantation of human CD34+ cells into warfarin-treated NSG mice; format: in vivo; conditions: warfarin- vs vehicle-treated NSG mice, 6 weeks after transplantation, P=0.015
# Protocol: as §1
# For the xenotransplantation experiments, we intravenously injected 1.3×10^5 human CD34+ cells, obtained via magnetic separation by magnetic beads (Miltenyi Biotech, Bergisch Gladbach, Germany) from BM filters used after harvest of non-mobilized HSPC from healthy allogeneic donors, into irradiated (250 cGy) NSG mice, which had previously been treated with vehicle or warfarin for 14 days.
# We assessed the complete blood count of vehicle or warfarin-treated mice using a complete blood count analyzer (Scil Vet ABC, Gurnee, IL). […] Engraftment of human cells in NSG mice was assessed using anti-human CD45 (BD Biosciences, San José, CA).
# patients = assay: Peripheral blood counts of patients on VKA versus control patients; format: in vivo, human
# Text: For FIGS. 6C-6H: Data of patients on VKA were obtained from the French health care databases. Patients with hematological disease, inflammation or sepsis were excluded. Patients admitted to the hospital for dermatological problems without hematological disease or sepsis acted as controls.
structure (smiles),measurement,setting,value
CC(=O)CC(c1ccccc1)c1c(O)c2ccccc2oc1=O (stereo not drawn) [warfarin],international normalized ratio (INR),wildtype mice,"modest, but significant increase"
same,colony-forming ability of HSPC,HSPC,significantly impaired
same,apoptosis of stroma cells in vitro,murine stroma cells; P=0.05,"modest, but significant increase"
same,differentiation of murine stroma cells to adipocytes and osteoblasts,murine stroma cells; in presence of warfarin,significantly compromised
same,"relative expression of osteoblastic genes (Runx2, Alpl, Col1a1, Osx, Spp1, Bglap and others)","murine stroma cells; primary calvaria cells, warfarin vs vehicle",significantly reduced
same,annexin V+ dead hematopoietic cells in coculture with stroma cells,"[1]; in the presence of warfarin vs vehicle, P=0.04",modest increase
same,number of cobblestone-forming areas,"[1]; untreated Lin− cells on previously warfarin-treated stroma, P=0.03",significantly decreased
same,Lin− cell fraction,Lin− bone marrow cells; P=0.0001,decrease
same,total number of hematopoietic cells,Lin− bone marrow cells; P=0.0009,decrease
same,myeloid cell fraction,Lin− bone marrow cells; P=0.001,decrease
same,G-CSF-mediated mobilization of LKS SLAM cells into peripheral blood,LKS and LKS SLAM cells; P=0.026,impaired
same,G-CSF-mediated mobilization of LKS cells into peripheral blood,LKS and LKS SLAM cells; P=0.042,impaired
same,engraftment of human CD45+ leukocytes,human CD34+ cells,reduced engraftment
same,absolute number of leukocytes,patients; 282 patients on warfarin (P=0.0007) or 89 on fluindione (P=0.029) vs 145 control patients,significantly decreased
same,absolute number of monocytes,patients; 282 patients on warfarin (P=0.004) or 89 on fluindione (P=0.046) vs 145 control patients,significantly decreased
same,percentage of eosinophils,"patients; 282 patients on warfarin vs 145 control patients, P=0.0027",significantly decreased
same,percentage of basophils,"patients; 282 patients on warfarin vs 145 control patients, P=0.007",significantly decreased
same,platelets,patients; warfarin- or fluindione-treated patients,not reduced
